Test results as given in ChEMBL document CHEMBL5291721, “A preclinical secondary pharmacology resource illuminates target-adverse drug reaction associations of marketed drugs” (Nat Commun, 2023).

Legend:
[1] = target: T1, Muscarinic acetylcholine receptor M4 (Homo sapiens, UniProt P08173)
T1 sequence (P08173 whole entry): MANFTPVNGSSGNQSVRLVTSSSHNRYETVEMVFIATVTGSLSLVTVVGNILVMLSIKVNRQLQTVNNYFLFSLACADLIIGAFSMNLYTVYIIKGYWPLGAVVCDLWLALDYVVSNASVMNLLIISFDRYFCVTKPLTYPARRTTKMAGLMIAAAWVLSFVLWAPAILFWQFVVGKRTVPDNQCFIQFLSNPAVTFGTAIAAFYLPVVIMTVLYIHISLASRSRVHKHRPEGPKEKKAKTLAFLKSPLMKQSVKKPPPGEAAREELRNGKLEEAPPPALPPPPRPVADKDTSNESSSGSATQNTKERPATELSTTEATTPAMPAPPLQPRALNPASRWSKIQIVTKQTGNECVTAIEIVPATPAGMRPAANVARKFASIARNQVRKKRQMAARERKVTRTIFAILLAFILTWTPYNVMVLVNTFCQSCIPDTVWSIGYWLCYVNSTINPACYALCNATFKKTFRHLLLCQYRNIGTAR

[2] = target: Voltage-dependent L-type calcium channel subunit alpha-1C (Homo sapiens, UniProt Q13936); assay type: functional, cell-based
Chain of Voltage-dependent L-type calcium channel subunit alpha-1C (Q13936 whole entry): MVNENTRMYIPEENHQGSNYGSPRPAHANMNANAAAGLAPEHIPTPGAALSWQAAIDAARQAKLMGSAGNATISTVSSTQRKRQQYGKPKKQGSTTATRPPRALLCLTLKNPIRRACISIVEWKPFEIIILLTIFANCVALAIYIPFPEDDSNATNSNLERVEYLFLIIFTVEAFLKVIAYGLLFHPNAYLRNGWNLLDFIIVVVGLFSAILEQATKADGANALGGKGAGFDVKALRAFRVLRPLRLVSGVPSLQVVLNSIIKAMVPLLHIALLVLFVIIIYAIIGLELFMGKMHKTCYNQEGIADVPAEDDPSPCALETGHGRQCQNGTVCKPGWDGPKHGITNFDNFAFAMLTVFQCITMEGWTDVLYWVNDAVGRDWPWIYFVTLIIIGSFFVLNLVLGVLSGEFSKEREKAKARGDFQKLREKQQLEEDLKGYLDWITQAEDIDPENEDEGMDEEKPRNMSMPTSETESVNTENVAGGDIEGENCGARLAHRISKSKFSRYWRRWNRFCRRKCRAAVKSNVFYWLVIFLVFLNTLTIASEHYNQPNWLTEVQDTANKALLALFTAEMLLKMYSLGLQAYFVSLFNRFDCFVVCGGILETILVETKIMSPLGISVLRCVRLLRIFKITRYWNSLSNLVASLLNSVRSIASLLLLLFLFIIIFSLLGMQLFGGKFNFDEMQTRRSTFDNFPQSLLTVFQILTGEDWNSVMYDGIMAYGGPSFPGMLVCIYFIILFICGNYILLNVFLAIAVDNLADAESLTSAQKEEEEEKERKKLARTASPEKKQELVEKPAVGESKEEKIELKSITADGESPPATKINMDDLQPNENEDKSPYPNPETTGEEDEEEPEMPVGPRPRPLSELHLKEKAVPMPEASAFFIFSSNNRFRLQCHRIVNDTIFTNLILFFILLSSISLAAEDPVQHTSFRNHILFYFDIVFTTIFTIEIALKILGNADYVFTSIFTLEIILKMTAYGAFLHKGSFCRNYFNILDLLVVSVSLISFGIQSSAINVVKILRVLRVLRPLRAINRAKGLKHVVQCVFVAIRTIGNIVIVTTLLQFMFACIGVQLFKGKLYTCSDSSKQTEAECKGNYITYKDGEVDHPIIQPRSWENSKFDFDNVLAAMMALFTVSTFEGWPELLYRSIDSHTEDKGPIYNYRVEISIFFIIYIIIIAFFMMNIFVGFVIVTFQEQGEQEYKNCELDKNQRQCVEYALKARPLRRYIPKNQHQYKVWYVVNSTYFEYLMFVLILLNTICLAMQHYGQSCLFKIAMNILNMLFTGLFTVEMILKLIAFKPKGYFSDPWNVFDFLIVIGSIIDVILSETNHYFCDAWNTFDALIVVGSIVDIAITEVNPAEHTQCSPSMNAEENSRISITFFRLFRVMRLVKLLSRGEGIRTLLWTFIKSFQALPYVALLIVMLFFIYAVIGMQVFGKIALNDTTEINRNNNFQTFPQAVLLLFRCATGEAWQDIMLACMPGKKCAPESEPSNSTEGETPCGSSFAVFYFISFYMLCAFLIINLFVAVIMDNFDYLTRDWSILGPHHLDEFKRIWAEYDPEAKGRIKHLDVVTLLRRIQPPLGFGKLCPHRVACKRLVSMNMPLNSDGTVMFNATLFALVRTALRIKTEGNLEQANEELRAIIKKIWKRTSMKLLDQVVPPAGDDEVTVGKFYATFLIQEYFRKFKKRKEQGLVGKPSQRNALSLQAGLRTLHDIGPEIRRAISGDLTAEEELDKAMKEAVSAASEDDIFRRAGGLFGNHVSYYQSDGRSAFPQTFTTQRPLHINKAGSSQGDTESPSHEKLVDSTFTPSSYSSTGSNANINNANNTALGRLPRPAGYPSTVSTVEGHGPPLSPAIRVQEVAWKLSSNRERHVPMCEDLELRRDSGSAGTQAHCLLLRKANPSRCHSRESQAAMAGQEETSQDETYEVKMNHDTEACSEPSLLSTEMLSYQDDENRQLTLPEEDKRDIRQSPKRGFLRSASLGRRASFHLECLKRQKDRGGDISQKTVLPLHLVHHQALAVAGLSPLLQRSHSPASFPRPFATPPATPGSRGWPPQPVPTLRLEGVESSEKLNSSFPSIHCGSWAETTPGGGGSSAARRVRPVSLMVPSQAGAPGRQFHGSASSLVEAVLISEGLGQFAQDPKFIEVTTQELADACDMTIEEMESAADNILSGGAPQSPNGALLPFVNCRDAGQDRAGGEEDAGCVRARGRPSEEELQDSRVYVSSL

[3] = target: T2, Peroxisome proliferator-activated receptor alpha (Homo sapiens, UniProt Q07869); assay type: functional
T2 sequence (Q07869 whole entry): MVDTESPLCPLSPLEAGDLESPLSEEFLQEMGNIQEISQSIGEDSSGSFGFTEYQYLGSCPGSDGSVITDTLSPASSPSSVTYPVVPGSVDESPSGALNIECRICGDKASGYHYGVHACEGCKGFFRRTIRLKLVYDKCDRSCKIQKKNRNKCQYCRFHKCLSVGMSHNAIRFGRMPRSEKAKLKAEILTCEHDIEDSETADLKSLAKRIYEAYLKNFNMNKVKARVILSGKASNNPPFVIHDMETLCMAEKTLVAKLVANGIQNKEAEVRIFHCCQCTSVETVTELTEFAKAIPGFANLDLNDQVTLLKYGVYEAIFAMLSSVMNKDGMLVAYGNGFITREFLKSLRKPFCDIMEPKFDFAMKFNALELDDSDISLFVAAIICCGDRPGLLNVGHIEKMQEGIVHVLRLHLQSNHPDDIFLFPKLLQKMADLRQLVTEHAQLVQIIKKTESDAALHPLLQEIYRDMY

[4] = target: T3, Type-2 angiotensin II receptor (Homo sapiens, UniProt P50052); assay type: functional
T3 sequence (P50052 whole entry): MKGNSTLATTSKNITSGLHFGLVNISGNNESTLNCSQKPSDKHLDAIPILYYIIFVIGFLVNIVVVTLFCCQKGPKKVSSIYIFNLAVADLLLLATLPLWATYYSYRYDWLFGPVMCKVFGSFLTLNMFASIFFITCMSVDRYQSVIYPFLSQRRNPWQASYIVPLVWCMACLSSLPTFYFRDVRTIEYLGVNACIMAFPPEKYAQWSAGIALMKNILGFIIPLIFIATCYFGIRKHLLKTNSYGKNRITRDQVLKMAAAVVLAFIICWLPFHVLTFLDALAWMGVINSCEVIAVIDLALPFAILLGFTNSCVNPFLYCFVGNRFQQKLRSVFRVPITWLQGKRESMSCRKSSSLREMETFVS

[5] = target: Hydroxycarboxylic acid receptor 2 (Homo sapiens, UniProt Q8TDS4)
Chain of Hydroxycarboxylic acid receptor 2 (Q8TDS4 whole entry): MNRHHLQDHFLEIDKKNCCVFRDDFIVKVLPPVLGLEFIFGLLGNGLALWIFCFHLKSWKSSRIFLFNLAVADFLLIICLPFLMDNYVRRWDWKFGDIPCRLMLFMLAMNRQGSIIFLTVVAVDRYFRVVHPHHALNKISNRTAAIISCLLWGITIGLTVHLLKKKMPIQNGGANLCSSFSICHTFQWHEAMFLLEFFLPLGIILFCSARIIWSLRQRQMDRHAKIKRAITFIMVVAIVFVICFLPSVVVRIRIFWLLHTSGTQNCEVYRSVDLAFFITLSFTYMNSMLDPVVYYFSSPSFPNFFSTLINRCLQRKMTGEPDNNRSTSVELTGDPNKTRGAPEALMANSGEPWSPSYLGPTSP

[6] = target: Synaptic vesicular amine transporter (Rattus norvegicus, UniProt Q01827); assay type: functional
Chain of Synaptic vesicular amine transporter (Q01827 whole entry): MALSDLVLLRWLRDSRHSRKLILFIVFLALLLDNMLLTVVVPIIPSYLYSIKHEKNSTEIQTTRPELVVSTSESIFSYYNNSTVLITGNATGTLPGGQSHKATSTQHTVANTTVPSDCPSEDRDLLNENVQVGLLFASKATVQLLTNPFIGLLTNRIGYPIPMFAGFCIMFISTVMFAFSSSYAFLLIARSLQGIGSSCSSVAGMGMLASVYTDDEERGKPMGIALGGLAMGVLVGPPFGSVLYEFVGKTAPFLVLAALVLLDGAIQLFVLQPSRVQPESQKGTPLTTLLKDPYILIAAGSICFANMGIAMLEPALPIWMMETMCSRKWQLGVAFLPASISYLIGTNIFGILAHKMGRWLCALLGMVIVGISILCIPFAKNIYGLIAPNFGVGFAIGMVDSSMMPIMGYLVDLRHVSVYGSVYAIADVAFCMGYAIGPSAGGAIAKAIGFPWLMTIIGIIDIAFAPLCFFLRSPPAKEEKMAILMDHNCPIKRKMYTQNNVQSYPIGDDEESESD

[7] = target: T4, Muscarinic acetylcholine receptor M2 (Homo sapiens, UniProt P08172)
T4 sequence (P08172 whole entry): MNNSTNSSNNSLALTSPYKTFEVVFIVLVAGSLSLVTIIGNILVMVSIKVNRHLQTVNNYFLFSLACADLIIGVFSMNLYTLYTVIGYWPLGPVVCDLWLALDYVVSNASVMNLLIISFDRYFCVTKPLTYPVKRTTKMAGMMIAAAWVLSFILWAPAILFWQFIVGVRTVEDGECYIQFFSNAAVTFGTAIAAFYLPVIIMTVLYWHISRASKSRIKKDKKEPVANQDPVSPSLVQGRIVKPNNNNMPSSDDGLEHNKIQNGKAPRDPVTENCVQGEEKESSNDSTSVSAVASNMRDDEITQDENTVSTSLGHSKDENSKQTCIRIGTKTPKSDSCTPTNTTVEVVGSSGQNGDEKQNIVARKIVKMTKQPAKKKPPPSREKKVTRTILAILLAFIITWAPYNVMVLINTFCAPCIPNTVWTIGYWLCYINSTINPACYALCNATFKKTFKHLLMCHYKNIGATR

Prothrombin = Prothrombin (Homo sapiens, UniProt P00734); assay type: functional
[8] = target: 5-hydroxytryptamine receptor 2B (Homo sapiens, UniProt P41595); assay type: functional, cell-based
Chain of 5-hydroxytryptamine receptor 2B (P41595 whole entry): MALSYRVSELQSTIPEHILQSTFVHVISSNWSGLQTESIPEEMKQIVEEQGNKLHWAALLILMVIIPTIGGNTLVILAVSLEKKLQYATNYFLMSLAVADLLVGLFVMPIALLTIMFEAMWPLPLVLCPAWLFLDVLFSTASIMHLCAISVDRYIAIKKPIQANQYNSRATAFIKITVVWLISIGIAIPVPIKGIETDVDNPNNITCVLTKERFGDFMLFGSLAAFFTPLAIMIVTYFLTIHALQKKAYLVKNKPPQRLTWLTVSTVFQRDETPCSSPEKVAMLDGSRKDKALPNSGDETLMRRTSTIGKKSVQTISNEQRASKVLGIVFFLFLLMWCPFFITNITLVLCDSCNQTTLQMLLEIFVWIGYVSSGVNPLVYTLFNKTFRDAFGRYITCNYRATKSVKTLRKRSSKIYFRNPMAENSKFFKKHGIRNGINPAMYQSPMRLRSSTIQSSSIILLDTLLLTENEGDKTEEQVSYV

[9] = target: T5, 5-hydroxytryptamine receptor 1A (Homo sapiens, UniProt P08908)
T5 sequence (P08908 whole entry): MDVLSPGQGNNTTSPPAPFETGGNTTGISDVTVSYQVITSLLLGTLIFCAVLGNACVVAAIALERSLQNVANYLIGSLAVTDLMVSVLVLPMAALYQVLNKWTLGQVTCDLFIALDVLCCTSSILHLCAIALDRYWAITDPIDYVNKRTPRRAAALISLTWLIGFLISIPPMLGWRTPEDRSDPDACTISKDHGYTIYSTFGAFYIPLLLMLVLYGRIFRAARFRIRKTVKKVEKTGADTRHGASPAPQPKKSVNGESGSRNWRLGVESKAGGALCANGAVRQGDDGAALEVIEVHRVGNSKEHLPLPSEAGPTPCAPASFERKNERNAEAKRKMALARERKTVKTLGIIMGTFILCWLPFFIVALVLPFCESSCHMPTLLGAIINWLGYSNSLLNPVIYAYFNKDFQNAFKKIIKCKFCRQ
Further: assay procedure not described here.

Compound: C[N+]12CCC(CC1)C(OC(=O)C(O)(c1ccccc1)c1ccccc1)C2 (centres undefined)
- AC50 [1]: 0.0047 µM

Compound: CO/N=C(\C(=O)N[C@@H]1C(=O)N2C(C(=O)O)=C(CSc3nc(=O)c(=O)[nH]n3C)CS[C@H]12)c1csc(N)n1 [CEFTRIAXONE]
- AC50 [2]: > 50 µM

Compound: COc1cc(N)c(Cl)cc1C(=O)NC1CCN(CCCOc2ccc(F)cc2)CC1OC (centres undefined) [CISAPRIDE]
- AC50 [2]: > 50 µM

Compound: CCOC(=O)C(C)(C)Oc1ccc(Cl)cc1 [CLOFIBRATE]
- AC50 [3]: > 30 µM

Compound: CCCCOc1ccc(C(=O)CCN2CCCCC2)cc1 [DYCLONINE]
- AC50 [1]: 13.4 µM

Compound: O=C1Nc2ccc(Cl)cc2C(c2ccccc2Cl)=NC1O (centres undefined) [LORAZEPAM]
- AC50 [4]: > 100 µM
- AC50 [5]: > 10 µM

Compound: Cc1ccnc2c1NC(=O)c1cccnc1N2C1CC1 [NEVIRAPINE]
- AC50 [1]: > 10 µM

Compound: Fc1ccc([C@@H]2CCNC[C@H]2COc2ccc3c(c2)OCO3)cc1 [PAROXETINE]
- AC50 [1]: 3.47 µM
- AC50 [6]: 2.5 µM
- AC50 [4]: > 100 µM
- AC50 [2]: > 50 µM

Compound: CCC(=O)O[C@](Cc1ccccc1)(c1ccccc1)[C@H](C)CN(C)C [PROPOXYPHENE]
- AC50 [5]: > 10 µM

Compound: CCN(CC)CCCC(C)Nc1c2ccc(Cl)cc2nc2ccc(OC)cc12 (centres undefined) [QUINACRINE]
- AC50 [7]: 0.768 µM
- AC50 (Prothrombin): > 30 µM
- AC50 [8]: > 30 µM
- AC50 [9]: 2.26 µM

Compound: CCCCCCCC(=O)CC[C@@H]1[C@@H](C/C=C\CCCC(=O)OC(C)C)[C@@H](O)C[C@H]1O [UNOPROSTONE ISOPROPYL]
- AC50 [2]: > 50 µM

Compound: CC(c1cc2ccccc2s1)N(O)C(N)=O (centres undefined) [ZILEUTON]
- AC50 [6]: > 30 µM
